Here are results for 20 compounds from article PMC10253577, “Conformationally Restricted Glycoconjugates Derived from Arylsulfonamides and Coumarins: New Families of Tumour-Associated Carbonic Anhydrase Inhibitors” (International Journal of Molecular Sciences, 2023).

Read-outs that look alike come from different tables or passages of the source. Bounds are passed on as bounds.

For data set [1], the target named is T1, hCA IX (Homo sapiens, UniProt Q16790). Description: stopped-flow CO2 hydration assay, hCA IX. Conditions: for S.I. I/IX: Ki (CA I)/Ki (CA IX); for S.I. II/IX: Ki (CA II)/Ki (CA IX).
Method: (§3) The panel of CA-directed compounds prepared herein were assessed in vitro against a series of isoforms of human CA with relevant therapeutic interest.
(§4) The choice of such isoforms will provide information about selectivity against tumour-associated CA IX and XII compared to other relevant CAs.
(§5) The inhibitory properties of title compounds against CAs were determined using the stopped-flow CO2 hydrase assay, as previously reported [46].
For the next data set, the target named is hCA XII (Homo sapiens, UniProt O43570). Description: stopped-flow CO2 hydration assay, hCA XII. Conditions: for S.I. I/XII: Ki (CA I)/Ki (CA XII); for S.I. II/XII: Ki (CA II)/Ki (CA XII).
Data set [2] addresses T1, hCA IX. On the set-up: made in house. Conditions: previously reported thioureas; cited from earlier work.
For another data set, the target named is hCA IV (Homo sapiens, UniProt P22748). Description: stopped-flow CO2 hydration assay, hCA IV. Conditions: mean from three assays, errors ±5–10%.
Another data set deals with hCA I (Homo sapiens, UniProt P00915). Description: stopped-flow CO2 hydration assay, hCA I.
The next data set addresses hCA II (Homo sapiens, UniProt P00918). Description: stopped-flow CO2 hydration assay, hCA II.
In the next data set the test system is A549 (Lung, Non-Small). Description: antiproliferative assay (NCI protocol), A549. The class given is cell-based. Particulars: Homo sapiens, drug-sensitive cell line, mean ± SD. The source says:
(§1) The compounds prepared herein were subjected to in vitro testing as potential antiproliferative agents against a panel of six human solid tumour cell lines, following minor modifications of the protocol from the US National Cancer Institute (NCI). They can be categorized into two groups: drug-sensitive cell lines (A549, HBL-100, HeLa, SW1573) and multidrug resistant cell lines (T-47D, WiDr). […] Ph-derived thiourea 21e and imidazolidine-2-thione 24f were not included in the study.
(§2) Minor modifications of the US National Cancer Institute (NCI) protocol were used.

Another data set deals with HBL-100 (Breast). Description: antiproliferative assay (NCI protocol), HBL-100. The format is cell-based. Conditions: Homo sapiens, drug-sensitive cell line, mean ± SD.
From the text: as §1, §2

The test system of the next data set is HeLa (Cervix). Description: antiproliferative assay (NCI protocol), HeLa. The class given is cell-based. Conditions: Homo sapiens, drug-sensitive cell line, mean ± SD.
From the text: as §1, §2

The next data set concerns SW1573 (Lung, Non-Small). Description: antiproliferative assay (NCI protocol), SW1573. Conditions: Homo sapiens, drug-sensitive cell line, mean ± SD. The class given is cell-based.
From the text: as §1, §2

A further data set has as its system T-47D (Breast). Description: antiproliferative assay (NCI protocol), T-47D. The class given is cell-based. Particulars: Homo sapiens, T47D; multidrug-resistant cell line, mean ± SD.
From the text: as §1, §2

The next data set has as its system WiDr (Colon). Description: antiproliferative assay (NCI protocol), WiDr. The format is cell-based. Conditions: Homo sapiens, multidrug-resistant cell line, mean ± SD.
From the text: as §1, §2

Data set [3] has as its system panel of six human solid tumour cell lines (A549, HBL-100, HeLa, SW1573, T-47D, WiDr). Description: antiproliferative assay (NCI protocol), whole panel. The format is cell-based.
From the text: as §1, §2

hCA I, sequence (P00915 whole entry): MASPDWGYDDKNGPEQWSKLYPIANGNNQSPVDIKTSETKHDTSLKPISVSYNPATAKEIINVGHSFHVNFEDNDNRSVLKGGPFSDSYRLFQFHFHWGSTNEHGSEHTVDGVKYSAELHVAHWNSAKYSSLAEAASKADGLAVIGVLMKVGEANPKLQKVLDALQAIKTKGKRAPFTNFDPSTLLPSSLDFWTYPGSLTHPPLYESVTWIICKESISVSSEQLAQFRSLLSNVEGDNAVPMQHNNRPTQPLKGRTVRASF
hCA IV, sequence (P22748 19-312): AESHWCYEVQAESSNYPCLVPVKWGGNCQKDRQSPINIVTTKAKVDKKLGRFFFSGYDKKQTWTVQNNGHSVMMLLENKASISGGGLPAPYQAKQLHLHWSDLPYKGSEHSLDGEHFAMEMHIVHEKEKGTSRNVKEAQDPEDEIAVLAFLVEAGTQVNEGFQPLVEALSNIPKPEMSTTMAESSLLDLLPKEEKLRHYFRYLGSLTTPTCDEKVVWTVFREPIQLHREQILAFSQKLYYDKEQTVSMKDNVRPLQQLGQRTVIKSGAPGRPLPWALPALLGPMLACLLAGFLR
hCA XII, sequence (O43570 25-354): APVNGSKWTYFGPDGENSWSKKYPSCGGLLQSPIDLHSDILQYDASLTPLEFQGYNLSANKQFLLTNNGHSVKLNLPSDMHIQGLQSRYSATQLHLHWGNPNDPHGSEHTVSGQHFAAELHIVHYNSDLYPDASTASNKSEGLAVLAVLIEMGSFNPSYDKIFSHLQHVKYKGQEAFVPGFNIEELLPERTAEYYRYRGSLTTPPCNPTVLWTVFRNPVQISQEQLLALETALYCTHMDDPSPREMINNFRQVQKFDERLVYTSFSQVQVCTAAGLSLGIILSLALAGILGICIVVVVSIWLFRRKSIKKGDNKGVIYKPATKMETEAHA
Method for hCA II: as §3, §4, §5
Method for hCA IV: as §3, §4, §5
Method for hCA XII: as §3, §4, §5

For the compound `NS(=O)(=O)c1ccc(NC(=S)N[C@@H]2O[C@H](CO)[C@@H](O)[C@H](O)[C@H]2O)cc1` [Compound 1a], at hCA IX [1], the “S.I. I/IX” value was 27.2 and the “S.I. II/IX” value was 0.02. Further, on hCA XII, the “S.I. I/XII” value was 937 and the “S.I. II/XII” value was 0.9.
On the same counts, the results for `NS(=O)(=O)c1ccc(CCNC(=S)N[C@@H]2O[C@H](CO)[C@@H](O)[C@H](O)[C@H]2O)cc1` [Compound 1c] are 1.0, 12.4, 0.9 and 11.1.
Take `NS(=O)(=O)c1ccc(NC(=S)N[C@@H]2O[C@H](CO)[C@H](O)[C@H](O)[C@H]2O)cc1` [Compound 2a]: on hCA IX [1], the “S.I. I/IX” value came to 977.1 and the “S.I. II/IX” value was determined as 31.7. Moreover, on hCA XII, the “S.I. I/XII” value was 340 and the “S.I. II/XII” value was found to be 11.0.
In the same order, the values of `NS(=O)(=O)c1ccc(CCNC(=S)N[C@@H]2O[C@H](CO)[C@H](O)[C@H](O)[C@H]2O)cc1` [Compound 2c] are 2067.9, 3.3, 568 and 0.9.
Broadly, the Ki is the equilibrium dissociation constant of an inhibitor or competing ligand from its target. Turning to `NS(=O)(=O)c1ccc(NC(=S)NC2C(O)OC(CO)C(O)C2O)cc1` (stereo not shown) [Compound 3a], the Ki at hCA IX [2] was 0.077 µM. On hCA IX [1], the “S.I. I/IX” value was 35.1 and the “S.I. II/IX” value turned out to be 126.
In the case of `NS(=O)(=O)c1cccc(NC(=S)NC2C(O)OC(CO)C(O)C2O)c1` (stereo not shown) [Compound 3b], at hCA IX [2], the inhibition constant Ki is 0.009 µM.
Take `NS(=O)(=O)c1ccc(NC(=S)N[C@H]2C(O)O[C@H](CO)[C@H](O)[C@@H]2O)cc1` (stereo partly shown) [Compound 4a]: on hCA IX [2], the Ki was 0.074 µM. On hCA IX [1], the “S.I. I/IX” value amounted to 48.6 and the “S.I. II/IX” value is given as 104.
`NS(=O)(=O)c1cccc(NC(=S)N[C@H]2C(O)O[C@H](CO)[C@H](O)[C@@H]2O)c1` (stereo partly shown) [Compound 4b]: the Ki on hCA IX [2] is 0.042 µM. Moreover, on hCA IX [1], the “S.I. I/IX” value is on record as 102.4 and the “S.I. II/IX” value is recorded as 22.4.
For the compound `NS(=O)(=O)c1ccc(N2C(=S)NC3C(O)C(C(O)CO)OC32)cc1` [Compound 8a, 1-(4′-Sulfonamidophenyl)-(1″,2″-dideoxy-α-D-glucofurano)[2,1-d]imidazolidine-2-thione], on hCA IV, the affinity corresponds to a Ki of 0.348 µM.
Turning to `NS(=O)(=O)c1cccc(N2C(=S)NC3C(O)C(C(O)CO)OC32)c1` [Compound 8b, 1-(3′-Sulfonamidophenyl)-(1″,2″-dideoxy-α-D-glucofurano)[2,1-d]imidazolidine-2-thione], the inhibition constant Ki at hCA IV turned out to be 0.0451 µM.
Still for that read-out and setting: with `NS(=O)(=O)c1ccc(CCN2C(=S)NC3C(O)C(C(O)CO)OC32)cc1` [Compound 8c, 1-[2′-(4″-Sulfonamidophenyl)]ethyl-(1‴,2‴-dideoxy-α-D-glucofurano)[2,1-d]imidazolidine-2-thione] the figure was 1.05 µM; with `NS(=O)(=O)c1ccc(N2C(=S)NC3C(O)C(C(O)CO)OC32)cc1` [Compound 9a, 1-(4′-Sulfonamidophenyl)-(1″,2″-dideoxy-α-D-galactofurano)[2,1-d]imidazolidine-2-thione], 4.57 µM; with `NS(=O)(=O)c1cccc(N2C(=S)NC3C(O)C(C(O)CO)OC32)c1` [Compound 9b, 1-(3′-Sulfonamidophenyl)-(1″,2″-dideoxy-α-D-galactofurano)[2,1-d]imidazolidine-2-thione], 27.3 µM.
As a reminder, the melting point is the temperature of the solid-liquid transition. Turning to `CO[C@H]1O[C@H](CO)[C@@H](O)[C@H](O)[C@H]1NC(=S)NCCCCOc1ccc2c(-c3ccccc3)cc(=O)oc2c1` [Compound 21e, N-(Methyl 2-deoxy-α-D-glucopyranosid-2-yl)-N′-{4′-[7″-(4″-phenyl-2″-oxo-2″H-chromen-7″-yl)oxy]butyl}thiourea], the melting point came out at 165 °C. Moreover, the Ki on hCA I was more than 100 µM. This compound had a Ki at hCA II of more than 100 µM. Also, on hCA IX [1], the Ki was 0.106 µM, the “S.I. I/IX” value was more than 945 and the “S.I. II/IX” value is more than 945. In addition, on hCA XII, the affinity corresponds to a Ki of 0.228 µM, the “S.I. I/XII” value is on record as more than 439 and the “S.I. II/XII” value is on record as more than 439.
What is called GI50 is the concentration that inhibits growth by half. `CO[C@H]1O[C@H](CO)[C@@H](O)[C@H](O)[C@H]1NC(=S)NCCCCCCOc1ccc2c(-c3ccccc3)cc(=O)oc2c1` [Compound 21f, N′-(Methyl 2-deoxy-α-D-glucopyranosid-2-yl)-N′-{6′-[7″-(4″-phenyl-2″-oxo-2″H-chromen-7″-yl)oxy]hexyl}thiourea] showed a melting point of 148 °C. It took 34 ± 4 µM to inhibit growth with A549 (Lung, Non-Small) by half (GI50). The same compound came in with a GI50 in the data set with HBL-100 (Breast) of 23 ± 3.2 µM. In the data set with HeLa (Cervix), this compound displayed a GI50 of 25 ± 8 µM. This compound also displayed a GI50 in the data set with SW1573 (Lung, Non-Small) of 9.7 µM. In addition, the GI50 with T-47D (Breast) is 30 ± 7.4 µM. Also, in the data set on WiDr (Colon), it took 36 ± 16 µM to inhibit growth by half (GI50). Moreover, the GI50 in data set [3] (the five cell lines other than SW1573, read-out: GI50, other five lines) was in the range of 23 to 36 µM. At hCA I, this compound had a Ki of more than 100 µM. Moreover, the Ki on hCA II was 17.3 µM. Also, on hCA IX [1], the Ki amounted to 0.116 µM, the “S.I. I/IX” value is recorded as more than 858 and the “S.I. II/IX” value was found to be 148. Moreover, on hCA XII, the inhibitory constant (Ki) was determined as 0.164 µM, the “S.I. I/XII” value is more than 610 and the “S.I. II/XII” value is 106.
Regarding `Cc1cc(=O)oc2cc(OCCCCCCN3C(=S)N[C@@H]4[C@@H](O)[C@@H]([C@H](O)CO)O[C@@H]43)ccc12` [Compound 24c, 1-{6′-[7″-(4″-Methyl-2″-oxo-2″H-chromen-7″-yl)oxy]hexyl}-(1‴,2‴-dideoxy-α-D-glucofurano)[2,1-d]imidazolidine-2-thione], the Ki at hCA I and at hCA II was more than 100 µM in each case.
`O=c1cc(-c2ccccc2)c2ccc(OCCCCN3C(=S)N[C@@H]4[C@@H](O)[C@@H]([C@H](O)CO)O[C@@H]43)cc2o1` [Compound 24e, 1-{4′-[7″-(4″-Phenyl-2″-oxo-2″H-chromen-7″-yl)oxy]butyl}-(1‴,2‴-dideoxy-α-D-glucofurano)[2,1-d]imidazolidine-2-thione]: the GI50 worked out at 64 ± 31 µM in the data set with A549 (Lung, Non-Small); 23 ± 0.8 µM in the data set with HBL-100 (Breast); 31 ± 0.2 µM with HeLa (Cervix); 5.7 ± 1.8 µM with SW1573 (Lung, Non-Small); 70 ± 23 µM in the data set on T-47D (Breast); 47 ± 11 µM with WiDr (Colon).
As for `O=c1cc(-c2ccccc2)c2ccc(OCCCCCCN3C(=S)N[C@@H]4[C@@H](O)[C@@H]([C@H](O)CO)O[C@@H]43)cc2o1` [Compound 24f, 1-{6′-[7″-(4″-Phenyl-2″-oxo-2″H-chromen-7″-yl)oxy]hexyl}-(1‴,2‴-dideoxy-α-D-glucofurano)[2,1-d]imidazolidine-2-thione], the GI50 in [3] (maximum concentration tested 100 µM, read-out: GI50, all tested cell lines) is more than 100 µM.
As to `Cc1cc(=O)oc2cc(OCCCCCCN3C(=S)NC4C(O)C(C(O)CO)OC43)ccc12` [Compound 26, 1-{4′-[7″-(4″-Methyl-2″-oxo-2″H-chromen-7″-yl)oxy]hexyl}-(1‴,2‴-dideoxy-α-D-galactofurano)[2,1-d]imidazolidine-2-thione], the Ki at hCA I and at hCA II was more than 100 µM each time.
Consider `CO[C@H]1O[C@H](CO)[C@@H](O)[C@H](O)[C@H]1NC(=S)Nc1ccc2c(C)cc(=O)oc2c1` [Compound C00016], for which the GI50 in the data set on A549 (Lung, Non-Small) is 79 ± 36 µM; with HBL-100 (Breast) it was 86 ± 25 µM; in the data set on HeLa (Cervix), 83 ± 30 µM; in the data set with SW1573 (Lung, Non-Small) it was 79 ± 37 µM; in the data set with T-47D (Breast), more than 100 µM; in the data set with WiDr (Colon), more than 100 µM.
